Measured values from the NIST ThermoML archive (doi:10.1016/j.jct.2005.10.006).
Values joined by “and” are separate entries in the source; they are usually repeats but may differ in a detail not shown here. Equal values may be shown once. ± gives the expanded uncertainty stated by the source.

Assay: xn = mol fraction of the nth substance listed
Details: Fluid (supercritical or subcritical phases), Spherical resonator

N#N [nitrogen] + C
Details	speed of sound
170 K, 124.7 kPa, x1 = 0.5422	291.53 ± 0.49 m/s
170 K, 150 kPa, x1 = 0.5422	291.29 ± 0.49 m/s
170 K, 174.8 kPa, x1 = 0.5422	291.06 ± 0.49 m/s
170 K, 199.8 kPa, x1 = 0.5422	290.83 ± 0.49 m/s
170 K, 224.8 kPa, x1 = 0.5422	290.59 ± 0.49 m/s
170 K, 249.8 kPa, x1 = 0.5422	290.36 ± 0.49 m/s
170 K, 279.7 kPa, x1 = 0.5422	290.07 ± 0.49 m/s
170 K, 280 kPa, x1 = 0.5422	290.07 ± 0.49 m/s
170 K, 409.7 kPa, x1 = 0.5422	288.85 ± 0.49 m/s
170 K, 409.8 kPa, x1 = 0.5422	288.85 ± 0.49 m/s
170 K, 680.3 kPa, x1 = 0.5422	286.28 ± 0.48 m/s
170 K, 680.4 kPa, x1 = 0.5422	286.28 ± 0.48 m/s
170 K, 1293 kPa, x1 = 0.5422	280.36 ± 0.47 m/s
170 K, 2374 kPa, x1 = 0.5422	269.67 ± 0.46 m/s and 269.68 ± 0.46 m/s
170 K, 3248 kPa, x1 = 0.5422	261.01 ± 0.45 m/s
170 K, 3249 kPa, x1 = 0.5422	260.99 ± 0.44 m/s
170 K, 3953 kPa, x1 = 0.5422	254.33 ± 0.43 m/s
170 K, 3954 kPa, x1 = 0.5422	254.32 ± 0.43 m/s
170 K, 4555 kPa, x1 = 0.5422	249.39 ± 0.43 m/s
170 K, 4572 kPa, x1 = 0.5422	249.51 ± 0.43 m/s
190 K, 311.9 kPa, x1 = 0.5422	307.35 ± 0.52 m/s
190 K, 457.6 kPa, x1 = 0.5422	306.42 ± 0.51 m/s
190 K, 762.5 kPa, x1 = 0.5422	304.49 ± 0.51 m/s
190 K, 1464 kPa, x1 = 0.5422	300.13 ± 0.5 m/s
190 K, 2748 kPa, x1 = 0.5422	292.7 ± 0.49 m/s
190 K, 3852 kPa, x1 = 0.5422	287.32 ± 0.48 m/s
190 K, 4810 kPa, x1 = 0.5422	284.03 ± 0.48 m/s
190 K, 5716 kPa, x1 = 0.5422	282.84 ± 0.48 m/s
215 K, 351.4 kPa, x1 = 0.5422	327.5 ± 0.55 m/s
215 K, 516.2 kPa, x1 = 0.5422	326.87 ± 0.55 m/s
215 K, 863.4 kPa, x1 = 0.5422	325.57 ± 0.54 m/s
215 K, 1672 kPa, x1 = 0.5422	322.77 ± 0.54 m/s
215 K, 3199 kPa, x1 = 0.5422	318.49 ± 0.53 m/s
215 K, 4573 kPa, x1 = 0.5422	316.24 ± 0.53 m/s
215 K, 5826 kPa, x1 = 0.5422	316.02 ± 0.53 m/s
215 K, 7070 kPa, x1 = 0.5422	317.96 ± 0.53 m/s
220 K, 99.6 kPa, x1 = 0.2	363.86 ± 0.6 m/s
220 K, 101.5 kPa, x1 = 0.2	363.89 ± 0.6 m/s
220 K, 200 kPa, x1 = 0.1	374.49 ± 0.62 m/s
220 K, 249.1 kPa, x1 = 0.2	362.81 ± 0.6 m/s
220 K, 249.2 kPa, x1 = 0.2	362.81 ± 0.6 m/s
220 K, 249.5 kPa, x1 = 0.2	362.85 ± 0.6 m/s
220 K, 498.6 kPa, x1 = 0.2	361.06 ± 0.6 m/s
220 K, 498.8 kPa, x1 = 0.2	361.05 ± 0.6 m/s
220 K, 499.1 kPa, x1 = 0.2	361.09 ± 0.6 m/s
220 K, 501.4 kPa, x1 = 0.1	371.96 ± 0.62 m/s
220 K, 998.6 kPa, x1 = 0.2	357.56 ± 0.59 m/s
220 K, 999.3 kPa, x1 = 0.2	357.56 ± 0.59 m/s
220 K, 1001 kPa, x1 = 0.1	367.77 ± 0.61 m/s
220 K, 1003 kPa, x1 = 0.2	357.57 ± 0.59 m/s
220 K, 2006 kPa, x1 = 0.2	350.72 ± 0.58 m/s
220 K, 2007 kPa, x1 = 0.1	359.38 ± 0.6 m/s
220 K, 2008 kPa, x1 = 0.2	350.73 ± 0.58 m/s
220 K, 3014 kPa, x1 = 0.2	344.27 ± 0.57 m/s
220 K, 3016 kPa, x1 = 0.2	344.28 ± 0.57 m/s
220 K, 3018 kPa, x1 = 0.1	351.21 ± 0.58 m/s
220 K, 4002 kPa, x1 = 0.2	338.63 ± 0.56 m/s
220 K, 4034 kPa, x1 = 0.2	338.48 ± 0.56 m/s
220 K, 4040 kPa, x1 = 0.1	343.53 ± 0.57 m/s
220 K, 5057 kPa, x1 = 0.2	333.84 ± 0.56 m/s
220 K, 6079 kPa, x1 = 0.2	331.09 ± 0.55 m/s
220 K, 6099 kPa, x1 = 0.1	332.63 ± 0.55 m/s
220 K, 7000 kPa, x1 = 0.2	331.07 ± 0.55 m/s
220 K, 7981 kPa, x1 = 0.2	334.7 ± 0.56 m/s
220 K, 8215 kPa, x1 = 0.1	339.23 ± 0.57 m/s
220 K, 9000 kPa, x1 = 0.2	343.57 ± 0.57 m/s
220 K, 9974 kPa, x1 = 0.2	357.39 ± 0.59 m/s
220 K, 10421 kPa, x1 = 0.1	383.6 ± 0.64 m/s
220 K, 10996 kPa, x1 = 0.2	376.87 ± 0.62 m/s
220 K, 12068 kPa, x1 = 0.2	401.11 ± 0.66 m/s
220 K, 12996 kPa, x1 = 0.2	423.71 ± 0.7 m/s
220 K, 14014 kPa, x1 = 0.2	449.03 ± 0.73 m/s
220 K, 14274 kPa, x1 = 0.1	498.94 ± 0.82 m/s
220 K, 14891 kPa, x1 = 0.2	470.66 ± 0.77 m/s
220 K, 16024 kPa, x1 = 0.2	497.89 ± 0.81 m/s
220 K, 16645 kPa, x1 = 0.1	562.65 ± 0.91 m/s
220 K, 17031 kPa, x1 = 0.2	521.17 ± 0.85 m/s
220 K, 18043 kPa, x1 = 0.1	596.39 ± 0.96 m/s
220 K, 18088 kPa, x1 = 0.2	544.6 ± 0.88 m/s
220 K, 19087 kPa, x1 = 0.2	565.86 ± 0.92 m/s
220 K, 19556 kPa, x1 = 0.2	575.49 ± 0.93 m/s
220 K, 19985 kPa, x1 = 0.1	639.27 ± 1 m/s
220 K, 25037 kPa, x1 = 0.2	675.84 ± 1.1 m/s
220 K, 30201 kPa, x1 = 0.2	753.84 ± 1.2 m/s
250 K, 99.6 kPa, x1 = 0.2	387.32 ± 0.64 m/s
250 K, 105 kPa, x1 = 0.2	387.33 ± 0.64 m/s
250 K, 199.6 kPa, x1 = 0.1	398.92 ± 0.66 m/s
250 K, 249.1 kPa, x1 = 0.2	386.69 ± 0.64 m/s
250 K, 249.5 kPa, x1 = 0.2	386.7 ± 0.64 m/s
250 K, 405.3 kPa, x1 = 0.5422	353.38 ± 0.59 m/s
250 K, 498.3 kPa, x1 = 0.2	385.62 ± 0.64 m/s
250 K, 499.1 kPa, x1 = 0.1	397.32 ± 0.65 m/s
250 K, 499.1 kPa, x1 = 0.2	385.63 ± 0.64 m/s
250 K, 596.4 kPa, x1 = 0.5422	353.08 ± 0.59 m/s
250 K, 998.2 kPa, x1 = 0.2	383.53 ± 0.63 m/s
250 K, 998.9 kPa, x1 = 0.2	383.54 ± 0.63 m/s
250 K, 999.8 kPa, x1 = 0.1	394.71 ± 0.65 m/s
250 K, 1001 kPa, x1 = 0.5422	352.48 ± 0.58 m/s
250 K, 1955 kPa, x1 = 0.5422	351.35 ± 0.58 m/s
250 K, 2002 kPa, x1 = 0.2	379.64 ± 0.63 m/s
250 K, 2004 kPa, x1 = 0.1	389.75 ± 0.64 m/s
250 K, 2005 kPa, x1 = 0.2	379.64 ± 0.63 m/s
250 K, 2974 kPa, x1 = 0.1	385.4 ± 0.64 m/s
250 K, 3002 kPa, x1 = 0.2	376.26 ± 0.62 m/s
250 K, 3014 kPa, x1 = 0.2	376.24 ± 0.62 m/s
250 K, 3805 kPa, x1 = 0.5422	350.46 ± 0.58 m/s
250 K, 4021 kPa, x1 = 0.2	373.48 ± 0.62 m/s
250 K, 4026 kPa, x1 = 0.2	373.48 ± 0.62 m/s
250 K, 4027 kPa, x1 = 0.1	381.43 ± 0.63 m/s
250 K, 4989 kPa, x1 = 0.2	371.62 ± 0.62 m/s
250 K, 5030 kPa, x1 = 0.2	371.55 ± 0.66 m/s
250 K, 5041 kPa, x1 = 0.1	378.44 ± 0.63 m/s
250 K, 5536 kPa, x1 = 0.5422	351.48 ± 0.58 m/s
250 K, 5903 kPa, x1 = 0.2	370.69 ± 0.61 m/s
250 K, 6000 kPa, x1 = 0.2	370.66 ± 0.61 m/s
250 K, 6066 kPa, x1 = 0.1	376.58 ± 0.62 m/s
250 K, 7002 kPa, x1 = 0.2	370.93 ± 0.61 m/s
250 K, 7089 kPa, x1 = 0.1	376.21 ± 0.62 m/s
250 K, 7176 kPa, x1 = 0.5422	354.43 ± 0.59 m/s
250 K, 8018 kPa, x1 = 0.2	372.66 ± 0.62 m/s
250 K, 8117 kPa, x1 = 0.1	377.7 ± 0.62 m/s
250 K, 8849 kPa, x1 = 0.5422	359.54 ± 0.6 m/s
250 K, 8859 kPa, x1 = 0.5422	359.5 ± 0.6 m/s
250 K, 9001 kPa, x1 = 0.2	375.95 ± 0.62 m/s
250 K, 9155 kPa, x1 = 0.1	381.49 ± 0.63 m/s
250 K, 10175 kPa, x1 = 0.2	382.17 ± 0.63 m/s
250 K, 10204 kPa, x1 = 0.1	387.94 ± 0.64 m/s
250 K, 11195 kPa, x1 = 0.2	389.7 ± 0.64 m/s
250 K, 11238 kPa, x1 = 0.1	397.06 ± 0.65 m/s
250 K, 12284 kPa, x1 = 0.1	408.99 ± 0.67 m/s
250 K, 13078 kPa, x1 = 0.2	408.65 ± 0.67 m/s
250 K, 13320 kPa, x1 = 0.1	423.21 ± 0.69 m/s
250 K, 14003 kPa, x1 = 0.2	420.05 ± 0.69 m/s
250 K, 14166 kPa, x1 = 0.1	436.28 ± 0.72 m/s
250 K, 15044 kPa, x1 = 0.1	450.92 ± 0.74 m/s
250 K, 15316 kPa, x1 = 0.2	438.11 ± 0.72 m/s
250 K, 16059 kPa, x1 = 0.2	449.07 ± 0.74 m/s
250 K, 16075 kPa, x1 = 0.1	469.1 ± 0.77 m/s
250 K, 17054 kPa, x1 = 0.2	464.35 ± 0.76 m/s
250 K, 17093 kPa, x1 = 0.1	487.71 ± 0.8 m/s
250 K, 18084 kPa, x1 = 0.1	506.09 ± 0.83 m/s
250 K, 18089 kPa, x1 = 0.2	480.72 ± 0.79 m/s
250 K, 18990 kPa, x1 = 0.1	522.94 ± 0.85 m/s
250 K, 19031 kPa, x1 = 0.2	495.86 ± 0.81 m/s
250 K, 19850 kPa, x1 = 0.2	509.09 ± 0.83 m/s
250 K, 19992 kPa, x1 = 0.1	541.47 ± 0.88 m/s
250 K, 25516 kPa, x1 = 0.1	637.9 ± 1 m/s
